Test results reported in patent US20040254162A1, “Oxazolidinone derivatives as antimicrobials” (priority 2001, published 2004).
Converted amounts (≈) assume the structure as drawn.

Tests used:
[1] = system: Fusobacterium varium; test: Agar dilution MIC, anaerobes; assay type: cell-based; conditions: Fusobacterium varium, single isolates, anaerobic agar dilution; read-out: MIC Fusobacterium varium
[2] = system: S. aureus; test: Summary of in vitro activity (MIC); conditions: Staphylococcus aureus
[3] = system: Mycobacterium tuberculosis
[4] = system: Peptostreptococcus tetradius; test: Agar dilution MIC, anaerobes; assay type: cell-based; conditions: Anaerococcus tetradius, single isolates, anaerobic agar dilution; read-out: MIC Peptostreptococcus tetradius
[5] = system: P. acnes; test: Agar dilution MIC, anaerobes; assay type: cell-based; conditions: Cutibacterium acnes, single isolates, anaerobic agar dilution; read-out: MIC P. acnes
[6] = system: Bacteroides fragilis; test: Agar dilution MIC, anaerobes; assay type: cell-based; conditions: Bacteroides fragilis, single isolates, anaerobic agar dilution; read-out: MIC Bacteroides fragilis
[7] = system: anaerobic bacteria; test: Agar dilution method for anaerobic bacteria, summary; assay type: cell-based
[8] = system: Peptostreptococcus prevotii; test: Agar dilution MIC, anaerobes; assay type: cell-based; conditions: Anaerococcus prevotii, single isolates, anaerobic agar dilution; read-out: MIC Peptostreptococcus prevotii
[9] = system: Prevotella intermedia; test: Agar dilution MIC, anaerobes; assay type: cell-based; conditions: single isolates, anaerobic agar dilution
[10] = Changes in MIC under different conditions: agar MIC; assay type: cell-based; conditions: strain not given
[11] = system: Mycobacterium tuberculosis; test: microbe, parasite or virus in culture; conditions: 504 h
[12] = system: MRSA 15187; test: MIC, agar incorporation method; conditions: Staphylococcus aureus, MRSA, read-out: MIC MRSA 15187
[13] = system: Prevotella (Bacteroides) disiens; test: Agar dilution MIC, anaerobes; assay type: cell-based; conditions: single isolates, anaerobic agar dilution; read-out: MIC Prevotella (Bacteroides) disiens
[14] = system: Peptostreptococcus asaccharolyticus; test: Agar dilution MIC, anaerobes; assay type: cell-based; conditions: single isolates, anaerobic agar dilution
[15] = system: Clostridium difficile; test: Agar dilution MIC, anaerobes; assay type: cell-based; conditions: Clostridioides difficile, single isolates, anaerobic agar dilution; read-out: MIC Clostridium difficile
[16] = system: MRSE 879; test: Broth MIC, MRSE 879; assay type: cell-based; conditions: Staphylococcus epidermidis; MRSE 879; read-out: broth MIC
[17] = system: E. faecalis; test: Summary of in vitro activity (MIC); conditions: Enterococcus faecalis
[18] = system: MRSE 879 adherent bacteria; test: Sintered glass adherent bacteria model; conditions: MRSE 879, sintered glass adherent bacteria model
[19] = system: Clostridium perfringens; test: microbe, parasite or virus in culture; assay type: cell-based; conditions: Clostridium perfringens, read-out: MIC Clostridium perfringens, single isolates, anaerobic agar dilution
[20] = system: MRSA 33; test: MIC, agar incorporation method; conditions: Staphylococcus aureus, MRSA, read-out: MIC MRSA 33
[21] = Changes in MIC under different conditions: broth MIC; assay type: cell-based; conditions: strain not given
[22] = system: Strep. pne. ATCC 6303; test: MIC, agar incorporation method; conditions: Streptococcus pneumoniae, ATCC6303, read-out: MIC S. pneum 6303
[23] = in vivo; cited from earlier work
[24] = system: Fusobacterium nucleatum; test: Agar dilution MIC, anaerobes; assay type: cell-based; conditions: single isolates, anaerobic agar dilution
[25] = system: S. pneum AB 34; test: MIC, agar incorporation method; conditions: Streptococcus pneumoniae, AB34, read-out: MIC S. pneum AB 34
[26] = system: Prevotella melaninogenica; test: Agar dilution MIC, anaerobes; assay type: cell-based; conditions: single isolates, anaerobic agar dilution
[27] = system: VRE 6A (Ent. faecium 6A); test: MIC, agar incorporation method; conditions: Enterococcus, VRE, read-out: MIC VRE 6A
[28] = system: Ent. faecalis ATCC 29212; test: MIC, agar incorporation method; conditions: Enterococcus faecalis, ATCC29212, read-out: MIC E. faecalis 29212
[29] = system: G +ve bacteria; test: Summary of in vitro activity (MIC)
[30] = system: Peptostreptococcus magnum; test: Agar dilution MIC, anaerobes; assay type: cell-based; conditions: single isolates, anaerobic agar dilution
[31] = system: Fusobacterium necrogenes; test: Agar dilution MIC, anaerobes; assay type: cell-based; conditions: Fusobacterium necrogenes; single isolate, anaerobic agar dilution; read-out: MIC Fusobacterium necrogenes
[32] = system: S. pneumoniae; test: Summary of in vitro activity (MIC); conditions: Streptococcus pneumoniae
[33] = system: Eubacterium leutum; test: Agar dilution MIC, anaerobes; assay type: cell-based; conditions: Eubacterium, single isolates, anaerobic agar dilution; read-out: MIC Eubacterium leutum
[34] = read-out: Geometric Mean of in vitro activity (MIC)

With `CC(=O)NC[C@H]1CN(c2ccc(N3CCOCC3)c(F)c2)C(=O)O1` [Linezolid] the MIC [1] was 1 µg/mL (≈ 2.96 µM), the MIC50 [2] was 2 µg/mL (≈ 5.93 µM) and the MIC90 [2] was 4 µg/mL (≈ 11.9 µM). For the same compound, the MIC [2, 34] was 2.38 µg/mL (≈ 7.05 µM), the G.M. [3] was 8 µg/mL and the MIC [4] was 0.5 µg/mL (≈ 1.48 µM). It also gave an MIC [5] of 0.5 µg/mL (≈ 1.48 µM), an MIC [6] of 4 µg/mL (≈ 11.9 µM) and an MIC50 ([7]; 48 h) of 1 µg/mL (≈ 2.96 µM). For the same compound, the MIC90 ([7]; 48 h) was 4 µg/mL (≈ 11.9 µM), the “Geometric Mean” value ([7]; anaerobes) was 1.134 µg/mL and the “MIC Range” value ([7]; anaerobes) was 0.25 to 4 µg/mL. For the same compound, the MIC [8] was 0.5 µg/mL (≈ 1.48 µM), the MIC ([9]; Prevotella intermedia, read-out: MIC Prevotella intermedia) was 0.5 µg/mL (≈ 1.48 µM) and the “MIC Prevotella intermedia” value [9] was 1 µg/mL (≈ 2.96 µM). The “Agar MIC” value [10] was 2 µg/mL, the MIC50 [11] was 8 µg/mL (≈ 23.7 µM) and the MIC90 [11] was 64 µg/mL (≈ 190 µM). For the same compound, the MIC [12] was 1 µg/mL (≈ 2.96 µM), the MIC [13] was 4 µg/mL (≈ 11.9 µM) and the MIC ([14]; Peptoniphilus asaccharolyticus) was 0.5 µg/mL (≈ 1.48 µM). The “MIC Peptostreptococcus asaccharolyticus” value [14] was 1 µg/mL (≈ 2.96 µM), the MIC [15] was 2 µg/mL (≈ 5.93 µM) and the MIC [16] was 2 µg/mL (≈ 5.93 µM). It also gave an MIC50 [17] of 4 µg/mL (≈ 11.9 µM), an MIC90 [17] of 16 µg/mL (≈ 47.4 µM) and an MIC [17, 34] of 4 µg/mL (≈ 11.9 µM). For the same compound, the “concentration which would kill adherent bacteria” value [18] was 32 µg/mL, the MIC [19] was 2 µg/mL (≈ 5.93 µM) and the MIC [20] was 2 µg/mL (≈ 5.93 µM). For the same compound, the “Broth MIC +50% Sheep serum” value ([21]; +50% sheep serum) was 2 µg/mL, the “Broth MIC Normal MH broth” value ([21]; normal MH broth) was 1 µg/mL and the MIC [22] was 2 µg/mL (≈ 5.93 µM). The Cmax [23] was 12000 to 16000 ng/mL, the MIC ([24]; Fusobacterium nucleatum, read-out: MIC Fusobacterium nucleatum) was 0.5 µg/mL (≈ 1.48 µM) and the “MIC Fusobacterium nucleatum” value [24] was 1 µg/mL (≈ 2.96 µM). For the same compound, the MIC [25] was 4 µg/mL (≈ 11.9 µM), the MIC ([26]; Prevotella melaninogenica, read-out: MIC Prevotella melaninogenica) was 1 µg/mL (≈ 2.96 µM) and the “MIC Prevotella melaninogenica” value [26] was 2 µg/mL (≈ 5.93 µM). The MIC [27] was 2 µg/mL (≈ 5.93 µM), the MIC [28] was 2 µg/mL (≈ 5.93 µM) and the MIC50 [29] was 2 µg/mL (≈ 5.93 µM). The MIC90 [29] was 4 µg/mL (≈ 11.9 µM), the MIC ([30]; Peptostreptococcus, read-out: MIC Peptostreptococcus magnum) was 2 µg/mL (≈ 5.93 µM) and the “MIC Peptostreptococcus magnum” value [30] was 1 µg/mL (≈ 2.96 µM). For the same compound, the MIC [31] was 0.5 µg/mL (≈ 1.48 µM), the MIC50 [32] was 0.5 µg/mL (≈ 1.48 µM) and the MIC90 [32] was 2 µg/mL (≈ 5.93 µM). The MIC [32, 34] was 0.6 µg/mL (≈ 1.78 µM) and the MIC [33] was 1 µg/mL (≈ 2.96 µM).
